Literature values, collected in patent publication EP0209897A2, “Peptide enzyme inhibitors” (Merck & Co., Inc., priority 1985, dated 1987).

System: hog renin
Details: after the injection of hog renin into nephrectomized rats; Gross et al., Science 175:656, 1971

## Pepstatin
  blood pressure in vivo: reduce blood pressure
